Data reported in ChEMBL document CHEMBL1201862, “PubChem BioAssay data set” (2004).
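In this assay, cells in 96-well plates receive the compound at five concentrations for 48 hours. Endpoints are linearly interpolated between the surrounding concentrations. At the GI50, growth is halved.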 The source made the active and inactive calls. No stated cut-off is given here; in the data, active = GI50 up to about 1.1 µM and inactive = higher.

Columns and labels:
Assay in all cases: NCI anticancer screen, dose series, 48 h
[1] = test system: A549
[2] = test system: NCI-H226
[3] = test system: ACHN
[4] = test system: SK-MEL-5
[5] = test system: KM12
[6] = test system: SF-539
[7] = test system: CCRF-CEM
[8] = test system: TK-10
[9] = test system: UACC-257
[10] = test system: Malme-3M
[11] = test system: PC-3
[12] = test system: OVCAR-3
[13] = test system: 786-0
[14] = test system: UACC-62
[15] = test system: A498
[16] = test system: EKVX
[17] = test system: HT-29
[18] = test system: NCI/ADR-RES
[19] = test system: HCT-15
[20] = test system: M14

SMILES | GI50 [1] | GI50 [2] | GI50 [3] | GI50 [4] | GI50 [5] | GI50 [6] | GI50 [7] | GI50 [8] | GI50 [9] | GI50 [10] | GI50 [11] | GI50 [12] | GI50 [13] | GI50 [14] | GI50 [15] | GI50 [16] | GI50 [17] | GI50 [18] | GI50 [19] [µM] | GI50 [20]
CCOP(=O)(CC1CC(O)(CNc2cc(Cl)nc(N)n2)C1)OCC (configuration not stated) | > 100 µM (inactive) | > 100 µM (inactive) | > 100 µM (inactive) | > 100 µM (inactive) | > 100 µM (inactive) | > 100 µM (inactive) | > 100 µM (inactive) | > 100 µM (inactive) | > 100 µM (inactive) | > 100 µM (inactive) | > 100 µM (inactive) | > 100 µM (inactive) | > 100 µM (inactive) | > 100 µM (inactive) | > 100 µM (inactive) | > 100 µM (inactive) | > 100 µM (inactive) | > 100 µM (inactive) | > 100 | –
CC(C)C1(Cl)CCC2C3(C)CCCC(C)(C(=O)O)C3CC(Cl)C2(Cl)C1Cl (configuration not stated) | 23.5 µM (inactive) | 20.9 µM (inactive) | 43.2 µM (inactive) | 25.8 µM (inactive) | 18.2 µM (inactive) | 21.7 µM (inactive) | 22.8 µM (inactive) | 43.3 µM (inactive) | 31.1 µM (inactive) | 25.5 µM (inactive) | 34.6 µM (inactive) | – | 32.6 µM (inactive) | 24.7 µM (inactive) | 41.7 µM (inactive) | 21.5 µM (inactive) | 14.7 µM (inactive) | 32.5 µM (inactive) | 36.6 | 23.1 µM (inactive)
CO[C@@H]1[C@H](O)CC[C@]2(CO2)[C@H]1[C@@]1(C)O[C@@H]1CC=C(C)C | – | > 200 µM (inactive) | 155 µM (inactive) | > 200 µM (inactive) | 34.1 µM (inactive) | 134 µM (inactive) | > 200 µM (inactive) | > 200 µM (inactive) | – | 81.8 µM (inactive) | > 200 µM (inactive) | 189 µM (inactive) | > 200 µM (inactive) | 54.3 µM (inactive) | > 200 µM (inactive) | 165 µM (inactive) | > 200 µM (inactive) | > 200 µM (inactive) | 46.1 | 180 µM (inactive)
CCOC(=O)C1=C(C#N)S(=O)(=O)c2c(oc(C)c2C)N1 | > 100 µM (inactive) | > 100 µM (inactive) | > 100 µM (inactive) | > 100 µM (inactive) | > 100 µM (inactive) | > 100 µM (inactive) | – | > 100 µM (inactive) | > 100 µM (inactive) | > 100 µM (inactive) | > 100 µM (inactive) | > 100 µM (inactive) | > 100 µM (inactive) | > 100 µM (inactive) | > 100 µM (inactive) | > 100 µM (inactive) | > 100 µM (inactive) | > 100 µM (inactive) | > 100 | > 100 µM (inactive)
Cc1[nH]c2ccccc2c1-c1cc(-c2cc(-c3c(C)[nH]c4ccccc34)nc(N)n2)nc(N)n1 | > 100 µM (inactive) | 37.2 µM (inactive) | > 100 µM (inactive) | > 100 µM (inactive) | > 100 µM (inactive) | > 100 µM (inactive) | – | > 100 µM (inactive) | > 100 µM (inactive) | > 100 µM (inactive) | > 100 µM (inactive) | > 100 µM (inactive) | > 100 µM (inactive) | > 100 µM (inactive) | > 100 µM (inactive) | > 100 µM (inactive) | > 100 µM (inactive) | > 100 µM (inactive) | > 100 | > 100 µM (inactive)
O=C(O)C1CCCN1Cc1cc2ccccc2c2ccccc12 (configuration not stated) | > 100 µM (inactive) | > 100 µM (inactive) | > 100 µM (inactive) | > 100 µM (inactive) | > 100 µM (inactive) | > 100 µM (inactive) | – | > 100 µM (inactive) | > 100 µM (inactive) | > 100 µM (inactive) | > 100 µM (inactive) | > 100 µM (inactive) | > 100 µM (inactive) | > 100 µM (inactive) | > 100 µM (inactive) | > 100 µM (inactive) | > 100 µM (inactive) | > 100 µM (inactive) | > 100 | > 100 µM (inactive)
Nc1nc(Cl)c(CO)c(NCC2(CO)CC(CCc3ccccc3)C2)n1 (configuration not stated) | 18.6 µM (inactive) | 13.3 µM (inactive) | 24.4 µM (inactive) | 17.3 µM (inactive) | 0.264 µM (active) | 21.9 µM (inactive) | 16.5 µM (inactive) | 80.2 µM (inactive) | 11.4 µM (inactive) | 14.2 µM (inactive) | 51.3 µM (inactive) | 18.8 µM (inactive) | 31.8 µM (inactive) | – | 22.2 µM (inactive) | 19.2 µM (inactive) | 22.2 µM (inactive) | 11.5 µM (inactive) | 20.6 | –
O=C(O)[C@H](c1ccccc1)[C@@H](C(=O)O)c1ccccc1 | > 100 µM (inactive) | > 100 µM (inactive) | > 100 µM (inactive) | > 100 µM (inactive) | > 100 µM (inactive) | > 100 µM (inactive) | – | > 100 µM (inactive) | > 100 µM (inactive) | > 100 µM (inactive) | > 100 µM (inactive) | > 100 µM (inactive) | > 100 µM (inactive) | > 100 µM (inactive) | > 100 µM (inactive) | > 100 µM (inactive) | > 100 µM (inactive) | > 100 µM (inactive) | > 100 | > 100 µM (inactive)
C#CCNC(CCCNC(=N)N)C(=O)O (configuration not stated) | > 100 µM (inactive) | > 100 µM (inactive) | > 100 µM (inactive) | > 100 µM (inactive) | > 100 µM (inactive) | – | > 100 µM (inactive) | > 100 µM (inactive) | > 100 µM (inactive) | > 100 µM (inactive) | > 100 µM (inactive) | > 100 µM (inactive) | > 100 µM (inactive) | > 100 µM (inactive) | > 100 µM (inactive) | > 100 µM (inactive) | > 100 µM (inactive) | > 100 µM (inactive) | > 100 | > 100 µM (inactive)
COc1ccc(C2SC(=N)Nc3c2c(C)nn3C(=O)c2ccccc2O)cc1OC (configuration not stated) | 3.4 µM (inactive) | 4.32 µM (inactive) | 3.91 µM (inactive) | – | 6.55 µM (inactive) | 2.84 µM (inactive) | 4.93 µM (inactive) | > 10 µM (inactive) | > 10 µM (inactive) | 6.3 µM (inactive) | 4.5 µM (inactive) | > 10 µM (inactive) | 7.1 µM (inactive) | 2.64 µM (inactive) | 5.93 µM (inactive) | > 10 µM (inactive) | > 10 µM (inactive) | 5.52 µM (inactive) | 4.78 | 7.11 µM (inactive)
CN(C)/C=N/C1CCC(C(C)(C)C)CC1 (configuration not stated) | 18.7 µM (inactive) | 19.3 µM (inactive) | 21.2 µM (inactive) | 17.3 µM (inactive) | – | 17.5 µM (inactive) | – | 21.8 µM (inactive) | 15.7 µM (inactive) | 18.4 µM (inactive) | 15.1 µM (inactive) | 14.5 µM (inactive) | 17.6 µM (inactive) | 19 µM (inactive) | 24 µM (inactive) | 22.4 µM (inactive) | 8.69 µM (inactive) | 17.7 µM (inactive) | 17.2 | 17.6 µM (inactive)
Cc1cc2sc(C)[n+](CCCOS(=O)(=O)[O-])c2cc1C | > 100 µM (inactive) | > 100 µM (inactive) | > 100 µM (inactive) | > 100 µM (inactive) | > 100 µM (inactive) | > 100 µM (inactive) | – | > 100 µM (inactive) | > 100 µM (inactive) | 79.6 µM (inactive) | > 100 µM (inactive) | > 100 µM (inactive) | > 100 µM (inactive) | > 100 µM (inactive) | > 100 µM (inactive) | > 100 µM (inactive) | > 100 µM (inactive) | > 100 µM (inactive) | > 100 | > 100 µM (inactive)
COc1c2cc(C(C)(C)C)cc1CSCc1cc(C(C)(C)C)cc(c1OC)CCCCC2 | 37.7 µM (inactive) | 20.5 µM (inactive) | 31.8 µM (inactive) | 24.1 µM (inactive) | > 50 µM (inactive) | 19.6 µM (inactive) | 33.1 µM (inactive) | 31.9 µM (inactive) | 13.3 µM (inactive) | 29 µM (inactive) | 22.4 µM (inactive) | 15.1 µM (inactive) | > 50 µM (inactive) | 29.7 µM (inactive) | 38.6 µM (inactive) | – | > 50 µM (inactive) | > 50 µM (inactive) | > 50 | 46.7 µM (inactive)
CCCc1cc2c(cc1O)CC[C@@H]1[C@@H]2CC[C@]2(C)[C@@H](O)CC[C@@H]12 | 10.6 µM (inactive) | 13.4 µM (inactive) | 12.9 µM (inactive) | 10.5 µM (inactive) | 9.12 µM (inactive) | 10.8 µM (inactive) | 5.41 µM (inactive) | 16.2 µM (inactive) | 13.1 µM (inactive) | 13 µM (inactive) | 13.4 µM (inactive) | 11.8 µM (inactive) | 13.6 µM (inactive) | – | 17.9 µM (inactive) | 12.7 µM (inactive) | 16.3 µM (inactive) | 6.32 µM (inactive) | 4.98 | 10.5 µM (inactive)
CC(C(=O)ON1C(=O)CCC1=O)c1ccc(C(=O)c2ccccc2)s1 (configuration not stated) | > 100 µM (inactive) | > 100 µM (inactive) | > 100 µM (inactive) | > 100 µM (inactive) | > 100 µM (inactive) | – | > 100 µM (inactive) | > 100 µM (inactive) | > 100 µM (inactive) | > 100 µM (inactive) | > 100 µM (inactive) | > 100 µM (inactive) | > 100 µM (inactive) | > 100 µM (inactive) | > 100 µM (inactive) | > 100 µM (inactive) | > 100 µM (inactive) | > 100 µM (inactive) | > 100 | > 100 µM (inactive)
